The results in this text go back to patent US20170143605A1, “Compositions Comprising Osteopontin Derivatives for the Inhibition of Hair Growth” (FOLLICUM AB, priority 2014, published 2017).

Series [1] concerns human male scalp skin grafted onto SCID mice. The experiment in a line: Hair growth of human male scalp skin grafted onto SCID mice. In kind it is in vivo. The settings on record: human scalp grafts on SCID/beige mice; FOL-005 300 nM per graft intradermally twice a week; Minoxidil 5% topically twice a day; three months. From the text:
The effect of FOL-005 on hair growth of human male scalp skin grafted onto SCID mice was studied.
The aim of the study was to investigate the effect of FOL-005 on hair growth of human male scalp skin with tendency to androgenetic alopecia. In order to address this issue, fort-two female SCID/beige mice, six weeks of age, were involved in the study. Punch grafts, 3 mm^2, obtained from scalp skin of human volunteers with tendency to develop common alopecia, were transplanted onto SCID/beige mice (three grafts per mouse).
One week following transplantation, the mice were randomly divided into four treated groups as follows: • 1. Vehicle (10 mice) was injected intradermally twice a week and served as a negative control. • 2. Minoxidil (5%) (11 mice) was applied topically twice a day and served as appositive control. • 3. FOL-005 (300 nM per graft) (11 mice) was injected intradermally twice a week. • 4. Minoxidil 5%+FOL-005/Minoxidil (5%) (11 mice) was applied topically twice a day. FOL-005 (300 nM per graft) was injected intradermally twice a week. For the first 4 weeks the animals were treated with minoxidil only (in order to initiate hair growth) and then for the remaining period (2 months) FOL-005 treatment was added as injections, while minoxidil treatment was maintained as a topical application.
The number of hairs/graft was counted twice a week by two independent observers. […]

The test system of series [2] is isolated human hair follicles. The experiment in a line: Organ culture of isolated human hair follicles: hair cycle staging (anagen to catagen). In kind it is cell-based. From the text: Anagen VI hair follicles (see Kloepper et al., 2010, the disclosures of which are incorporated herein by reference) were micro dissected from normal human scalp skin obtained with informed patient consent from three healthy adult females undergoing routine face-lift cosmetic surgery.
Isolated hair follicles were organ-cultured for 6-10 days in insulin- and hydrocortisone-supplemented William's E medium according to Philpott et al. (see Philpott et al., 1990; Bodó et al., 2009; Gáspár et al., 2010, the disclosures of which are incorporated herein by reference).
Treatment with the exemplary polypeptide FOL-005 was initiated immediately upon culturing the hair follicles, and lasted 7 to 10 days.
At the end of organ-culture, hair follicles were embedded and processed for longitudinal cryosections (Bodó et al., 2009; Gáspár et al., 2010).

Series [3] concerns isolated human hair follicles. Description: Masson Fontana melanin pigmentation analysis in cultured isolated human hair follicles. The class given is cell-based. To be noted: 60 nM. As to the method: FIG. 3). Effect of FOL-005 on melatonin content in cultured isolated human hair follicles. The analysis was performed using Masson Fontana histochemistry and morphometric evaluation of each tissue section. Results presented as mean+/−SEM, n=26-47 hair follicles evaluated in each group. One-way ANOVA and Bonferroni's post-hoc test, *p<0.05
Masson Fontana staining: Cryosections were air dried and fixed in ethanol-acetic acid. The sections were washed in tris-buffered saline (TBS) and distilled water several times. Cryosections were treated with ammoniacal silver solution (Fluka, Seelze, Germany) for 40 min at 56° C. in the dark. After washing in distilled water, the sections were treated with 5% aqueous sodium thiosulphate (Merck, Darmstadt, Germany) for 1 min. Next, the sections were washed in running tap water for 3 min and were counter-stained in 0.5% aqueous neutral red (Sigma). After washing in distilled water, sections were dehydrated and mounted in Eukitt (O. Kindler, Freiburg, Germany).

In series [4] the test system is intact human scalp skin. Description: Full-thickness human scalp skin organ culture: hair cycle staging. The class given is cell-based. As to the method:
Full-thickness human scalp skin organ culture was performed for six days under serum-free conditions as described in (Lu et al., 2007, the disclosures of which are incorporated herein by reference).
In brief, scalp skin of female patients was obtained from routine face-lift surgery after informed consent. Human scalp skin was washed in William's E medium (Biochrom, Cambridge, UK) supplemented with 100 IU/ml penicillin G (Sigma, St Louis, Mo., USA), 10 μg/ml streptomycin (Sigma), 0.25 μg/ml amphotericin B (Gibco, Karlsruhe, Germany) for 5 min. The out-growing hair shafts were shaved off to the level of the epidermis; 2 mm biopsies of intact scalp skin were then punched out (parallel to the direction of hair growth, i.e. at an oblique angle), using an Acu-puncher (STIEFEL, Offenbach am Main, Germany).
The punches of human scalp tissue were carefully placed into William's E medium [supplemented with 100 IU/ml penicillin/10 μg/ml streptomycin, 10 μg/ml of insulin (Sigma), 10 ng/ml of hydrocortisone (Sigma) and 2 mmol/I of I-glutamine (Invitrogen, Paisley, UK)]. The skin fragments were left to float in the medium, with the epidermis up at air/liquid interface and the dermis/subcutis down. The cultures were maintained at 37° C. in a gassed incubator with 95% air and 5% CO2. The culture medium was changed every other day.
Immediately after commencement of culturing, the skin fragments were exposed to the exemplary polypeptide FOL-005 (at a dose of 15 nM to 3 μM), which lasted for the duration of culturing.
(§1) At different time points, skin specimens were embedded in O.C.T.™ Tissue-TEK (Sakura, Zoeterwoude, the Netherlands), frozen in liquid nitrogen, and 6 μm cryosections were cut. The sections were then post-fixed in acetone, air-dried and processed for haematoxylin and eosin (H&E; Sigma), Giemsa or Masson-Fontana histochemistry. Individual hair follicles were analysed with respect to their stage of cycling as described (Whiting et al. 1999), while hair follicle melanization was assessed by standard silver nitrate histochemistry (Masson-Fontana stain). Quantification of well-defined reference areas within the proximal hair matrix was performed using the Image J software (NIH).

The subject of series [5] is intact human scalp skin. Description: Ki67/TUNEL double immunofluorescence in intact human scalp skin. The class given is cell-based. The settings on record: 60 nM; 3 days after treatment. As to the method: FIG. 7). Effect of FOL-005 on proliferation of Ki67 positive cells in intact human scalp skin. The concentration of FOL-005 was 60 nM, Mean+/−SEM, n=6-17 photos/punch was evaluated. “D3”=3 days after treatment.
To evaluate apoptotic and proliferating cells, double immunofluorescence was applied. Terminal dUTP nicked label-ling (ApopTag®Fluorescein in situ Apoptosis Detection Kit; Chemicon, Tenecula, Calif., USA) was used as a marker for apoptosis, and Ki67 immunoreactivity (DakoCytomation, Glostrup, Denmark) as indicator of cell proliferation, as previously described (Foitzik et. al., 2006).
Masson Fontana staining and immunohistochemistry was performed as described above.
The proliferation of Ki67 positive cells and apoptosis therein was determined as described in Whiting et al., 1999, J Investig Dermatol Symp Proc 4:282-284 (the relevant disclosures of which are incorporated by reference).
Cells were exposed to exemplary polypeptide FOL-005 at a dose of 60 nM.

Series [6] deals with intact human scalp skin. The experiment in a line: Masson-Fontana melanin pigmentation in intact human scalp skin. In kind it is cell-based. To be noted: injection or addition to the culture medium. As to the method: FIG. 8). Effect of FOL-005 on melatonin content in intact human scalp skin. The analysis was performed using Masson Fontana histochemistry and morphometric evaluation of each tissue section. Results presented as mean+/−SEM. One-way ANOVA and Bonferroni's post-hoc test, **p<0.01, *p<0.05. “D3”=3 days after treatment.
as §1
Pigmentation changes in isolated follicles treated with exemplary polypeptide FOL-005 were assessed by Masson-Fontana histochemistry (see Whiting et al., 1999, J Investig Dermatol Symp Proc 4:282-284, the relevant disclosures of which are incorporated by reference).

For series [7], the system named is human HFs in organ-cultured full-thickness human scalp skin fragments. The experiment in a line: Emigration of dermal papilla cells in organ-cultured human scalp skin fragments. In kind it is cell-based. To be noted: anagen HFs only; pooled data from six patients. How it is done: FIG. 11). Effect of FOL-005 on emigration of Dermal Papilla (DP) cells. Only Anagen Hair follicles (HFs) analysed. Results based on pooled data from 6 patients. No significant change in the number of emigrating DP cells in HFs treated with FOL-005. Mean+/−SEM, n=18-22 HFs evaluated, Mann-Whitney test, ns
(§2) The following experiments were performed using human HFs in organ-cultured full-thickness human scalp skin fragments (4 mm, 6 female patients, 42-65 yrs).

Series [8] shares this test system. Description: Hair cycle staging in organ-cultured human scalp skin fragments. To be noted: pooled data from six patients. In kind it is cell-based. As to the method: FIG. 13). Hair Cycle staging. Treatment of HFs with FOL-005 consistently induces anagen HFs within human scalp skin to enter catagen prematurely in all six patients tested (in each vertical bar, the top region corresponds to mid-catagen, the middle region to early catagen and the bottom region to anagen). Pooled data from 6 patients.
as §2

The test system is the same in series [9]. The experiment in a line: Masson Fontana HF pigmentation in organ-cultured human scalp skin fragments. The class given is cell-based. To be noted: at the doses tested; pooled data from 6 patients. How it is done: FIG. 15). Masson Fontana staining. […] Anagen & Catagen Hair Follices analysed. Pooled data from 6 patients. Mean+/−SEM, n=41-51 HFs evaluated, unpaired Student's t-test, ns
FIG. 17). Masson Fontana staining. […] Anagen HFs analysed. Pooled data from 6 patients. Mean+/−SEM, n=13-22 HFs evaluated, unpaired Student's t-test, ns
as §2

For series [10] the test system is unchanged. Description: Hair follicle morphology (PAS staining). In kind it is cell-based. As to the method: as §2
Series [11] has the same test system. Description: Ki67/TUNEL proliferation/apoptosis in organ-cultured human scalp skin fragments. The class given is cell-based. To be noted: 15 nM; anagen and catagen HFs analysed. How it is done: FIG. 20). Ki67/TUNEL. […] Anagen & Catagen HFs analysed. Pooled data from 6 patients. Mean+/−SEM, n=48-59 HFs evaluated, Mann-Whitney test, *p<0.02. To reduce data distortion by outliers, Grubb's test was performed and the outlier value was eliminated from analysis.
as §2
Mean+/−SEM, n=48-59 HFs evaluated, Mann-Whitney test, *p<0.02. To reduce data distortion by outliers, Grubb's test was performed and the outlier value was eliminated from analysis.

Series [12] shares this test system. The experiment in a line: Toluidine blue staining for perifollicular mast cells. In kind it is cell-based. How it is done:
FIG. 22). Toluidine blue staining for detecting Mast cells.
as §2

Series [13] has the same test system. The experiment in a line: MHCII staining (indirect immunofluorescence). The class given is cell-based. How it is done:
FIG. 23). MHCII staining HS 14-061 (indirect immunofluorescence. Mouse anti human Ab HLA-DP-DQ-DR from DAKO). […] These MHCII+ cells are most likely macrophages.
as §2

The test system is the same in series [14]. The experiment in a line: CD31 staining (indirect immunofluorescence). In kind it is cell-based. As to the method: FIG. 24). CD31 staining HS14-061 (indirect immunoflourescence, mouse anti-human CD31 Ab from DAKO).
as §2

Series [15] has the same test system. The experiment in a line: K15 staining (indirect immunofluorescence). The class given is cell-based. As to the method:
FIG. 25). […] Preservation of HF stem cell pool and thus regenerative potential by FOL-005.
as §2
K15 staining was performed using HS14-087 (indirect immunoflourescence, mouse anti-human CK15 Ab from Chemikon).

`Nc1cc(N2CCCCC2)nc(N)[n+]1[O-]` [Minoxidil, reference compound] registered a number of hairs/graft in series [1] of 8.1±0.1 hairs/graft.

“VDTYDGDISVVYGLR (FOL-005, Peptide with similarity to sub-region of osteopontin) [exemplary polypeptide of the invention, osteopontin-derived 15-mer]”: the “hair follicle regression (analysis of cryosections)” value in series [2] and in series [4] (human skin pieces (Example B)) was “promotes hair follicle regression” in each case. Also, the “transition from anagen to catagen phase” value in [2] (15 nM, 60 nM and 300 nM, treatment 7 to 10 days) is “induced a dose-dependent transition from anagen to catagen phase”; in [4] (intact human scalp skin, 15 nM to 3 μM, six days culture), “induced a rapid transition from anagen to catagen phase”. Moreover, the melanin pigmentation entry in series [3] and in [6] was “significant reduction in pigmentation” each time. In addition, the “hair follicles in early catagen” value in series [4] (addition to the culture medium) was “Almost all hair follicles are observed in early catagen”. In series [4] (injection into the scalp skin tissue), the catagen induction entry is listed as “Catagen was also induced”. Also, the “apoptosis (proportion of TUNEL positive cells)” value in series [5] was “increased level of apoptosis”. For the same molecule, in series [5], the “proliferation (proportion of Ki67 positive cells)” value is “strong tendency towards reduced proliferation”. In series [7], the “number of emigrating dermal papilla (DP) cells in HFs” value is listed as “No significant effect”. Further, the “HF cycling (anagen to catagen)” value in [8] was “consistently induced anagen HFs within human scalp skin to enter catagen prematurely in all six patients tested”. In [9], the HF pigmentation entry is “No significant changes”. In addition, the “morphology of the BM (basal membrane) in HFs” value in series [10] is “No observable difference”. The “number of apoptotic cells in HFs” value in series [11] is reported as “significant increase”. Further, in [11], the “number of proliferative cells in HFs” value was “No significant changes”. Further, the “number of histochemically-detectable perifollicular mast cells” value in series [12] is reported as “No marked difference”. The “number of immunohistologically-detectable perifollicular MHC class II+ cells” value in series [13] is “No marked difference”. The “number of CD31+ cells (endothelial cells)” value in series [14] is “No marked differences”. The “number of K15+ cells” value in series [15] is given as “No marked differences”. Moreover, the “human HF epithelial stem cells” value in series [15] (K15 staining) is on record as “not affected negatively”. In addition, in series [1], the number of hairs/graft is on record as 2.1±0.4 hairs/graft.
